Here are results for 2 molecules from paper PMC7029871, “Development and validation of a sensitive LC-MS/MS method for the quantitation of IMB-YH-4py5-2H, an antituberculosis candidate, and its application to the pharmacokinetic study” (PLoS ONE, 2020).

In data set [1] the test system is intracellular M. tuberculosis H37Rv. The data set can be described thus: Intracellular activity assay in infected macrophages. To be noted: three-day incubation, infected J744 macrophages, untreated 6.47±0.04. In kind it is cell-based, Mycobacterium tuberculosis.
Details of data set [2]: method as in PMID 26579477. The following applies: oral administration of 200 mg/kg; cited from earlier work.
The conditions of data set [3]: cited from earlier work.

SMILES strings stand for the structures.

With `NNC(=O)c1ccncc1` [Isoniazid, reference compound], the Log10CFU in data set [1] (0.5 μg/mL) turned out to be 4.60±0.05 Log10CFU; in data set [1] (1 μg/mL), 3.57±0.06 Log10CFU; in data set [1] (2 μg/mL), 4.01±0.14 Log10CFU.

With `COC(=O)/C=C/C(=O)c1ccc(OC)cc1` [YH-8, (E)-Methyl-4-aryl-4-oxabut-2-enoate, reference compound], in data set [2], the “serum Cmax” value is “lower than 0.5 μg/mL” and the “time until serum level decreased below the therapeutic range” value is “less than 1 hour”. Besides, the solubility entry in data set [3] is given as “poor solubility”.
